Data as given in US20050060764A1, “Mouse model for bone metabolism” (priority 2003, published 2005).
Strand notation (5' to 3'): a small letter for the sugar, then the base; units joined by * are phosphorothioate-linked, units joined directly phosphodiester-linked; [ ] holds rarer units or linkages, { } end groups; capitals alone tell only the bases. e = 2'-O-(2-methoxyethyl) (MOE); [5mC] = 5-methylcytosine; d = 2'-deoxy (DNA)

test system: mouse RANKL mRNA; experiment: Antisense inhibition of mouse RANKL mRNA levels in C2C12 cells, quantitative real-time PCR (Table 2); type: cell-based; design: concentration or dose not given beside the values; conditions: averages from three experiments
Experimental: Cells were seeded into 24-well plates (Falcon-353047 at a density of ˜10,000 cells/cm^2 for use in antisense oligonucleotide transfection.
Cells are treated and data are obtained in triplicate. […] Cells were harvested 16-24 hours after oligonucleotide treatment.
PCR reagents were obtained from Invitrogen Corporation, (Carlsbad, Calif.).
Probes and primers to mouse RANKL were designed to hybridize to a mouse RANKL sequence, using published sequence information (GenBank accession number AF013170.1, incorporated herein as SEQ ID NO:ll). For mouse RANKL the PCR primers were: • forward primer: […] (SEQ ID NO:12) • reverse primer: […] (SEQ ID NO: 13) and • the PCR probe was: FAM-[…]-TAMRA (SEQ ID NO: 14) where FAM is the fluorescent reporter dye and TAMRA is the quencher dye. For mouse GAPDH the PCR primers were: • forward primer: […](SEQ ID NO:15) • reverse primer: […](SEQ ID NO:16) and the • PCR probe was: 5′ JOE-[…]-TAMRA 3′ (SEQ ID NO: 17) where JOE is the fluorescent reporter dye and TAMRA is the quencher dye.
In accordance with the present invention, a second series of antisense compounds was designed to target different regions of the mouse RANKL RNA, using published sequences (GenBank accession number AF013170.1, incorporated herein as SEQ ID NO: 11). […] All cytidine residues are 5-methylcytidines. […] If present “N.D.” indicates “no data”.

Row | Substance | % INHIB (inhibition of mouse RANKL mRNA levels)
1 | 180827 (antisense eA*eG*e[5mC]*eT*eA*d[5mC]*dG*dA*dG*dT*dA*d[5mC]*d[5mC]*dT*dT*e[5mC]*eA*eG*eG*eG) [compound 180827] | 54%
2 | 180805 (antisense eG*eG*e[5mC]*eT*eT*dG*d[5mC]*d[5mC]*dT*d[5mC]*dG*d[5mC]*dT*dG*dG*eG*e[5mC]*e[5mC]*eA*e[5mC]) [compound 180805] | 62%
3 | atgttccacgaaatgagtct (antisense eA*eT*eG*eT*eT*d[5mC]*d[5mC]*dA*d[5mC]*dG*dA*dA*dA*dT*dG*eA*eG*eT*e[5mC]*eT) [ISIS 180813, 2′-MOE gapmer targeted to mouse RANKL] | at least 40%
4 | aacatggagcgggaggcggc (antisense eA*eA*e[5mC]*eA*eT*dG*dG*dA*dG*d[5mC]*dG*dG*dG*dA*dG*eG*e[5mC]*eG*eG*e[5mC]) [ISIS 180801, 2′-MOE gapmer targeted to mouse RANKL] | at least 40%
5 | cgggaggeggcgggtggcgg (antisense e[5mC]*eG*eG*eG*eA*dG*dG*d[5mC]*dG*dG*d[5mC]*dG*dG*dG*dT*eG*eG*e[5mC]*eG*eG) [ISIS 180799, 2′-MOE gapmer targeted to mouse RANKL] | at least 40%
6 | 180818 (antisense eT*e[5mC]*eA*eG*eT*dG*dG*d[5mC]*dA*d[5mC]*dA*dT*dG*dT*d[5mC]*e[5mC]*eA*eG*eG*eG) [compound 180818] | 59%
7 | ggcttgcctcgctgggccac (antisense eG*eG*e[5mC]*eT*eT*dG*d[5mC]*d[5mC]*dT*d[5mC]*dG*d[5mC]*dT*dG*dG*eG*e[5mC]*e[5mC]*eA*e[5mC]) [ISIS 180805, 2′-MOE gapmer targeted to mouse RANKL] | at least 40%
8 | tcagaattgcccgaccagtt (antisense eT*e[5mC]*eA*eG*eA*dA*dT*dT*dG*d[5mC]*d[5mC]*d[5mC]*dG*dA*d[5mC]*e[5mC]*eA*eG*eT*eT) [ISIS 180810, 2′-MOE gapmer targeted to mouse RANKL] | at least 40%
9 | 180823 (antisense eT*eA*eA*eA*eT*dA*dT*dT*dT*dT*dG*dA*dA*dT*d[5mC]*eA*eA*eA*eT*eA) [compound 180823] | 9%
10 | 180796 (antisense eT*e[5mC]*eG*eG*e[5mC]*dT*dG*dG*d[5mC]*d[5mC]*d[5mC]*dG*dG*d[5mC]*dG*e[5mC]*eA*eT*eG*eG) [compound 180796] | 67%
11 | 180794 (antisense e[5mC]*e[5mC]*eG*eG*e[5mC]*dG*d[5mC]*dA*dT*dG*dG*d[5mC]*dG*d[5mC]*dG*eG*e[5mC]*eG*e[5mC]*e[5mC]) [compound 180794] | 0%
12 | 180830 (antisense eT*eG*eA*eA*eA*dG*dG*d[5mC]*dA*d[5mC]*d[5mC]*dT*dG*dG*dT*eG*eA*e[5mC]*e[5mC]*eA) [compound 180830] | 5%
13 | cttatttgcaggtcccagcg (antisense e[5mC]*eT*eT*eA*eT*dT*dT*dG*d[5mC]*dA*dG*dG*dT*d[5mC]*d[5mC]*e[5mC]*eA*eG*e[5mC]*eG) [ISIS 180820, 2′-MOE gapmer targeted to mouse RANKL] | at least 40%
14 | 180824 (antisense eT*eG*eT*e[5mC]*eA*dA*d[5mC]*dA*dG*dT*dG*dA*dG*dA*d[5mC]*eA*eT*eT*eT*eT) [compound 180824] | 29%
15 | 180804 (antisense e[5mC]*eA*eG*eT*eT*d[5mC]*d[5mC]*dT*dT*d[5mC]*dT*dG*d[5mC]*dA*d[5mC]*eG*eG*e[5mC]*e[5mC]*e[5mC]) [compound 180804] | 44%
16 | 180797 (antisense eT*e[5mC]*eT*e[5mC]*eG*dG*d[5mC]*dT*dG*dG*d[5mC]*d[5mC]*d[5mC]*dG*dG*e[5mC]*eG*e[5mC]*eA*eT) [compound 180797] | 60%
